pEC50: −log10 of the molar value.

For one data set, the target named is T1, HM74A (Homo sapiens, UniProt Q8TDS4).
T1 construct: expressed in transfected cells; pcDNA3.1 vectors; co-expressing chimeric G protein Gqi9
Kind of data set: Secondary fluorescent calcium indicator assay (FLIPR). Format: cell-based. To be noted: HEK-293 cells stably expressing HM74A and chimeric G protein Gqi9; % stimulation of maximal nicotinic acid response (100 μM). The method, then:
Secondary Fluorescent Calcium Indicator Assay (FLIPR)
HEK-293 cells were grown in tissue culture medium (DMEM/Nut mix F12 Medium with Glutamax I (Invitrogen), containing 10% FBS) at 37° C. in a 5% CO2 atmosphere. These cells were cultured in 6-well dishes at 3×10^5 cells/well and double transfected with DNA vectors (pcDNA3.1, Invitrogen) expressing either HM74A or HM74 and the chimeric G protein Gqi9. Two days after transfection the wells were combined and plated in 150 cm^2 flasks, in the presence of 50 μg/ml Hygromycin (Invitrogen) and 500 μg/ml Geneticin (Gibco). Fourteen days after plating, colonies were picked, expanded and analyzed for expression using a functional assay (FLIPR). Stable transfected HEK-293 cells expressing either HM74A or HM74 and the chimeric G protein Gqi9 were plated at 50,000 cells/well in black 96-well plates with clear bottom (Costar) and cultured to confluency overnight in growth media (DMEM/Nut mix F12 Medium with Glutamax I (Invitrogen), containing 10% FBS) at 37° C. in a humidified cell incubator containing 5% CO2. Growth media was aspirated and replaced with 100 μl of 1×FLIPR Calcium Assay Dye (Molecular Devices) in Hank's balanced salt solution (HBSS) containing 10 mM HEPES, and […] probenecid (Sigma), for 1 hour at 37° C. Cell plates were transferred to a FLIPR unit (Molecular Devices), and 50 μl of 3× compound dilution were added. Fluorescence emissions were measured and the effects of compounds were expressed as % stimulation of maximal nicotinic acid response (100 μM). Sigmoidal curves were fitted using the XLfit3 program (ID Business Solutions Ltd. UK) and EC50 values determined.

T1 sequence (Q8TDS4 whole entry): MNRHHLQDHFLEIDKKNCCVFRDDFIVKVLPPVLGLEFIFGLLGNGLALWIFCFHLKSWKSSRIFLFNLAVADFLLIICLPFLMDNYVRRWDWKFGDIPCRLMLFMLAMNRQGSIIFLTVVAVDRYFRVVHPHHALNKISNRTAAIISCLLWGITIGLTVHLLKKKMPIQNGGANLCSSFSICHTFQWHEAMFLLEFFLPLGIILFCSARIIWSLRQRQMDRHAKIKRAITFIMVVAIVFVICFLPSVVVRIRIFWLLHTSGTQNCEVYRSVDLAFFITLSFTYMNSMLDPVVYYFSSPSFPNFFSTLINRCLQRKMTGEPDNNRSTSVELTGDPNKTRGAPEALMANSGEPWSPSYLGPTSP

In turn, `COc1ccccc1-c1ccc(OCC(=O)Nc2cscc2C(=O)O)nc1` [Example 10, 4-{2-[5-(2-Methoxy-phenyl)-pyridin-2-yloxy]-acetylamino}-thiophene-3-carboxylic acid] registered a melting point of 194 to 197 °C.
For the compound `O=C(COc1ccc(Cl)c(Cl)c1)Nc1cscc1C(=O)O` [Example 18, 4-[2-(3,4-Dichloro-phenoxy)-acetylamino]-thiophene-3-carboxylic acid], the melting point lay in the range of 258 to 264 °C.
Take `O=C(COc1ccc(-c2ccccc2Cl)cn1)Nc1cscc1C(=O)O` [Example 19, 4-{2-[5-(2-Chloro-phenyl)-pyridin-2-yloxy]-acetylamino}-thiophene-3-carboxylic acid]: the melting point is 218 to 223 °C.
On to `O=C(COc1ccc(-c2ccc(F)cc2)cn1)Nc1cscc1C(=O)O` [Example 11, 4-{2-[5-(4-Fluoro-phenyl)-pyridin-2-yloxy]-acetylamino}-thiophene-3-carboxylic acid], for which, at HM74A, the negative logarithm of the EC50 (pEC50) is 6.88.
On to `CC(=O)Nc1cccc(-c2ccc(OCC(=O)Nc3cscc3C(=O)O)cc2)c1` [Example 6, 4-[2-(3′-Acetylamino-biphenyl-4-yloxy)-acetylamino]-thiophene-3-carboxylic acid], for which the melting point lay within 250 to 253 °C.
Turning to `O=C(COc1ccc(-c2cccc(Cl)c2)cc1)Nc1cscc1C(=O)O` [Example 4, 4-[2-(3′-Chloro-biphenyl-4-yloxy)-acetylamino]-thiophene-3-carboxylic acid], the melting point lay within 216 to 218 °C.
Same read-out and setting: the result for `COc1cccc(-c2ccc(OCC(=O)Nc3cscc3C(=O)O)cc2)c1` [Example 7, 4-[2-(3′-Methoxy-biphenyl-4-yloxy)-acetylamino]-thiophene-3-carboxylic acid] reads 187 to 189 °C; that for `Cc1ccccc1-c1ccc(OCC(=O)Nc2cscc2C(=O)O)cc1` [Example 5, 4-[2-(2′-Methyl-biphenyl-4-yloxy)-acetylamino]-thiophene-3-carboxylic acid], 207 to 209 °C.
Compound `O=C(COc1ccc(-c2ccccc2)cc1)Nc1cscc1C(=O)O` [Example 2, 4-[2-(Biphenyl-4-yloxy)-acetylamino]-thiophene-3-carboxylic acid] gave a melting point of 247 to 251 °C. The pEC50 at HM74A is 7.31.
Consider `CC(C)(C)c1ccc(OCC(=O)Nc2cscc2C(=O)O)cc1` [Example 23, 4-[2-(4-tert-Butyl-phenoxy)-acetylamino]-thiophene-3-carboxylic acid], for which the pEC50 on HM74A is 6.65.
The compound `O=C(COc1ccc(-c2ccc(F)cc2)cc1)Nc1cscc1C(=O)O` [Example 1, 4-[2-(4′-Fluoro-biphenyl-4-yloxy)-acetylamino]-thiophene-3-carboxylic acid] had a melting point of 244 to 251 °C.
Same read-out and setting: the result for `COc1ccccc1-c1ccc(OCC(=O)Nc2cscc2C(=O)O)cc1` [Example 3, 4-[2-(2′-Methoxy-biphenyl-4-yloxy)-acetylamino]-thiophene-3-carboxylic acid] reads 196 to 199 °C; that for `CC(=O)c1cccc(-c2ccc(OCC(=O)Nc3cscc3C(=O)O)cc2)c1` [Example 8, 4-[2-(3′-Acetyl-biphenyl-4-yloxy)-acetylamino]-thiophene-3-carboxylic acid], 212 to 214 °C.

The values above are taken from patent publication US7732452B2, “Thiophene derivatives which are HM74A agonists” (Hoffmann-La Roche Inc., priority 2005, dated 2010).
